Where two headings read alike, the source gives them in different places.
How the values were obtained:
[1] = tested on: human primary cell cultures and co-cultures; type: cell-based
Procedure: BioMap Profiling study was performed by DiscovereX according to service provider’s protocol. In brief cultures or co-cultures of human primary cells were treated with sets of stimulators specific for cell subsets. […] The expression of biomarkers specific for each system was measured by ELISA and other techniques. The results are shown as log-transformed ratio of the biomarker readouts for the drug-treated sample to vehicle controls. The grey area parallel to the x-axis indicates the 95% significance region calculated based on historical vehicle controls. […]

PI3Kδ = target: T1, PI3Kδ (Homo sapiens, UniProt O00329); experiment: ADP-Glo Kinase Assay; type: biochemical
T1 construct: purchased Merck Millipore
T1 sequence (O00329 whole entry): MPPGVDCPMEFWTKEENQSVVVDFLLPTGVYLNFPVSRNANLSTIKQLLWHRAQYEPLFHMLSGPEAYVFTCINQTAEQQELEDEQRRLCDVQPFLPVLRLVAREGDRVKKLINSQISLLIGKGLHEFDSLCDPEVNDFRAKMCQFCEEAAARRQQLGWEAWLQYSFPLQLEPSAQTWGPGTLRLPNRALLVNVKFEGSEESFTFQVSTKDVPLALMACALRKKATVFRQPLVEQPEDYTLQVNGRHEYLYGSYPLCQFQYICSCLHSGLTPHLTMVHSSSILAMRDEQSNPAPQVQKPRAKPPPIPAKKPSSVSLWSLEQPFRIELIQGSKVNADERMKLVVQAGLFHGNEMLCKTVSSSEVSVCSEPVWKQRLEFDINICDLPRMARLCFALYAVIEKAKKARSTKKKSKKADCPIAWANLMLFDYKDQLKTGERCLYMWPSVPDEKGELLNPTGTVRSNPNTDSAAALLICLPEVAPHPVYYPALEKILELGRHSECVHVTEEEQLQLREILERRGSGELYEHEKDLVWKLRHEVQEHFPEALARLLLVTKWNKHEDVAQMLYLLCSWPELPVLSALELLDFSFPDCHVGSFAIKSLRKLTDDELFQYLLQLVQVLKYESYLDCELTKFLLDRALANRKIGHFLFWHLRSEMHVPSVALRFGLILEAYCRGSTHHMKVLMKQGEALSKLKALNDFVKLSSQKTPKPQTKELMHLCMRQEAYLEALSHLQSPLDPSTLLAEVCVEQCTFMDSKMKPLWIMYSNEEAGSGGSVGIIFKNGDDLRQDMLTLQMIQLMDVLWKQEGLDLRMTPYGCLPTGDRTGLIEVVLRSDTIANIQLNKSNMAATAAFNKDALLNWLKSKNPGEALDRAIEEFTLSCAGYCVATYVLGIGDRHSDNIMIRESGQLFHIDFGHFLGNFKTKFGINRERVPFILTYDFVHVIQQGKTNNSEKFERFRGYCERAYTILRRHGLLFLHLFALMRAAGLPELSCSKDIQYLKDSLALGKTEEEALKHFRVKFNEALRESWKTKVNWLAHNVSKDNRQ
T1 sequence (P27986 whole entry partner): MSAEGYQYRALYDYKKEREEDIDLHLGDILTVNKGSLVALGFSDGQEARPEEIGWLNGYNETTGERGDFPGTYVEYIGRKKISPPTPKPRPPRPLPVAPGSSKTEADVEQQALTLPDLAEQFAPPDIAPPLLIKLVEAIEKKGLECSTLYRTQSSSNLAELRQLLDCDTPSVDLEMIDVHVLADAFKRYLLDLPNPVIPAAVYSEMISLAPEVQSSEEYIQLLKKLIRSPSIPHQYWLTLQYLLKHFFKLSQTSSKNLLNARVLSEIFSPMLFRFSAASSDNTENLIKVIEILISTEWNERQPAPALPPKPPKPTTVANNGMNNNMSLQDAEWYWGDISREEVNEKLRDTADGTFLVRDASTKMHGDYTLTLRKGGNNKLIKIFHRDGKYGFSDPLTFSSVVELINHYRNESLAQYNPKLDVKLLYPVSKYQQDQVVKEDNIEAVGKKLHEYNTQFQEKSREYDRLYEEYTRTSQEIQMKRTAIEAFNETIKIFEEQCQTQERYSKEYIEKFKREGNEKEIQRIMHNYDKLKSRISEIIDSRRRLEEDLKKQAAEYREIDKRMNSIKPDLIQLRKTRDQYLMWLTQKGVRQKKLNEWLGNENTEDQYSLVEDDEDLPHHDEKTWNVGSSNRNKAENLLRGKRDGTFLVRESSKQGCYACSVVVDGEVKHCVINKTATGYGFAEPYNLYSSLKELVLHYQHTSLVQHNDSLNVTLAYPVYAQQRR
Procedure: The potency and selectivity of CPL302-253 against different isotypes of class I PI3K were assessed using ADP-Glo Kinase Assay (Promega) according to manufacturer’s protocol. PI3Kα, PI3Kβ, PI3Kδ, PI3Kγ were purchased from Merck Millipore. The inhibition of examined kinases activity was evaluated by measuring their ability to converse ATP to ADP in the presence of decreasing doses of tested compound (from 400 μM to 0,00004 μM). Kinases were mixed with 1 mM PIP2:PS substrate (Phosphoinositol-4,5-bisphosphate (PIP2) lipid vesicles with phosphoserine (PS), Thermofisher Scientific) and 30 μM ATP in an assay buffer (50 mM HEPES pH 7.5,50 mM NaCl, 3 mM MgCl2, 25 μg/ml BSA). The mixture was incubated in the dark for 1 h at 25°C (PI3Kα and PI3Kδ) or at 30°C (PI3Kβ, PI3Kγ). Next ADP-Glo reagent 1 was added to stop the reaction and remove any remaining ATP. The samples were incubated for 40 min at 25°C. Subsequently the ADP-Glo reagent 2 was added and reactions were incubated for 40 min at 25°C. Finally, luminescence was assessed and the IC50 was calculated.

[2] = Procedure: Unless otherwise stated, all chemicals and materials were ordered from Merck Life Science. Each biological replicate was prepared in triplicates. […] The negative control contained buffer instead of NADPH solution. Samples were collected at 0, 10, 20 and 40 min or 0 and 40 min for the negative and double negative controls. The reaction was stopped by protein precipitation in 2 volumes of ice cold MeOH with 200 nM imipramine (as an internal standard for LC-MS analysis). Then, the extract was mixed (1 min, 1000 rpm), filtered through 0.22 μm filter on 96-well plate vacuum manifold and subjected to LC-MS analysis. Metabolic stability in mouse and human cryopreserved hepatocytes was performed in suspension on 96-well tissue culture plates at 1 μM concentration in Williams medium E with CM4000 supplements (ThermoFisher Scientific). Cells were thawed according to the manufacturers manual, counted and preincubated for 30 min in a CO2 incubator (5% CO2, 37 °C, 5 · 10^4 cells/well). For the negative control cells were thermally inactivated for 5 min at 95 °C. Similarly to microsomal stability, experiments were done in technical triplicates, with the additional time point at 80’. Samples for LC-MS analysis were prepared as described for microsomes. Intrinsic clearance (Clint) was calculated using the rate of compound disappearance from the reaction. The elimination rate constant (k) was calculated as a module of slope of the linear regression from ln [substrate] vs time. Then, clearance was calculated as Clint = k/d, where d is protein or cell density for microsomal and hepatocyte stability, respectively.
The mobile phases were (A) 10 mM ammonium acetate pH 5.4 in water and (B) methanol. Samples were eluted using a timed, linear gradient from 30% B at 0 min to 90% B at 1.5 min then a hold 90% B to 2.5 min, after it back to initial 30% B to 2.6 min. The columns was equilibrated for up to 5 min. The flow rate was 0.5 mL/min. The injection volume was 3 μL.

[3] = tested on: panel of 468 human kinases; experiment: KINOMEScan broad panel; type: binding; conditions: 1 μM
Procedure: The inhibitor-kinase binding affinity was assessed in KINOMEscan™ assay (Discoverex) according to service provider’s protocol. In brief, in this binding assay the studied compound in solution is incubated with DNA-tagged kinase and kinase active-site directed ligand bound to the beads. The compound competes for binding to kinase with the immobilized ligand. After incubation beads are removed from the solution and kinase bound to ligand is quantified by qPCR. The strength of compound binding is determined based on its ability to block kinase-ligand binding. 11-point 3-fold serial dilution of CPL302-253 was used in order to determine its binding constants (Kd) against different isotypes of class I PI3K. The single concentration of CPL302-253 was used in order to determine its specificity in abroad panel of 468 human kinases. The measure of compounds affinity to each kinase in the panel was the percentage of kinase activity inhibition by tested ligand in comparison to the control.

## CC(C)(C)N1CCN(Cc2cc3nc(-c4cncc5[nH]ccc45)cc(N4CCOCC4)n3n2)CC1 [CPL302-253]
[1]
  cytotoxic effects in BioMap culture systems: no cytotoxic effects observed
[1]; systems other than BT, except PAI-1 in KF3CT
  impact on other studied BioMAP systems: no impact
PI3Kδ
  IC50: 12.2 nM
[2]
  degradation in human hepatocytes: degradation was not observed at all
[2]; CD-1, mouse, 1 μM
  Clint, times lower when compared to verapamil: ~30 times
[2]; human, 1 μM
  Clint (Fig 5D), single replicates: 0
  Clint, times lower when compared to verapamil: ~70 times
[2]; mouse, 1 μM
  degradation, fold slower as compared to verapamil: 11 fold
[3]
  inhibition of binding to specific substrate, kinases other than members of PI3K: ≤ 70%

Source: article PMC7377474, “Preclinical characterization of CPL302-253, a selective inhibitor of PI3Kδ, as the candidate for the inhalatory treatment and prevention of Asthma” (PLoS ONE, 2020)
